Assay results: US20060240028A1, “Anti-nls substances and uses thereof in nuclear import inhibition” (priority 2002, published 2006)
No end group written: not given here.

Legend:
[1] = system: VprN-mediated nuclear import; assay: Nuclear import of FL-BSA-VprN in permeabilized HeLa cells, fluorescence microscopy; format: cell-based; details: 1 mg/ml WGA, 4 mM GTP-γ-S, Table 2 (not given)
Protocol: (§1) Nuclear import of rhodamine-labeled BSA-NLS conjugates (FL-BSA-NLS) was performed as described before [Adam (1992) id ibid.; Broder (1997) id ibid.]. Amounts of FL-BSA-NLS substrate for FL-BSA SV40 large T-Ag NLS was 3-5 μg/system and for the FL-BSA-VprN 25 μg/system. Controls included: 1 mg/ml Wheat Germ Agglutinin (WGA), 4 mM of GTP-γ-S, or 1000 units/ml of Hexokinase and 10 mM Glucose. Samples were observed and photographed using confocal fluorescent microscopy.

[2] = system: nuclear import of Vpr-GST fusion protein; assay: Nuclear import of FL-Vpr-GST in digitonin permeabilized HeLa cells; format: cell-based; details: 5-fold excess unlabeled Vpr-GST
Protocol: as §1
The Vpr-GST fusion protein eluted from the Glutathione-Agarose resin was concentrated by VivaScience concentrators (MWCO 30,000) to a final concentration of 2.5-3.0 mg/ml, dialyzed for 2-3 hours against 1×PBS at 4° C. and labeled with rhodamine-maleimide Molecular Probes) according to manufacturer's instructions. Following 2 hours of incubation at room temperature with rotation, the labeled Vpr-GST fusion protein (FL-Vpr-GST) was purified using Sephadex G-25 fine (Pharmacia). The FL-Vpr-GST was then concentrated again using VivaScience concentrators (MWCO 30,000) and stored at −20° C.

[3] = system: interaction between anti-VprN scFv antibodies and surface-bound BSA-VprN conjugate; assay: Competition ELISA: inhibition of anti-VprN scFv binding to surface-bound BSA-VprN by soluble ligands; set-up: species or system HIV-1; details: for inhibition of binding of the three antibodies to VprN-BSA by soluble ligand: Ab1, Ab2, Ab3
Protocol: (§2) The various ELISA assays used in the present work were carried out as follows: MaxiSorb plates (NUNC) were covered overnight with 25-100 μg/ml of the antigen (in Carbonate Buffer 0.05M Na2CO3/0.05M NaHCOs, pH9.6) at 4° C. On the next day, the plates were washed three times with 1×PBS and blocked with 2% BSA in 1×PBS (for antibodies) or 2% Skim Milk (DIFCO) in 1×PBS (for all other molecules) for 2 hours at 37° C. The plates were then washed three times with 1×PBS, and the appropriate ligand (in blocking solution) was added and incubated for 2 hours at 37° C. The plates were then washed three times with 1×PBS and the following detecting agents were added for detecting the antigen-ligand complexes: Avidin-POD (Roche Diagnostics), for biotin labeled molecules (1 unit/ml); anti-M13 monoclonal antibody (Amersham Pharmacia, 1:5000), for the bound phages; and a mix of mouse anti-myc antibody (Sigma, 1:1000) with anti-mouse-HRP antibody (Sigma, 1:2000) for the scFv antibodies. Each detecting agent was dissolved in the appropriate blocking solution (see above). Following incubation for 1 hour at 37° C. with the detecting agent, the plates were washed three times with 1×PBS and the appropriate substrate was added, according to manufacturer instructions.

[4] = system: binding of anti-VprN scFv antibodies to Vpr-GST; assay: Competition ELISA: inhibition of anti-VprN scFv binding to surface-bound Vpr-GST; set-up: species or system HIV-1; details: for inhibition of binding of all three antibodies to Vpr-GST by added ligand: Ab1, Ab2, Ab3
Protocol: as §2

[5] = system: VprN-BSA conjugate (N-terminal domain of Vpr, amino acids 17-34); assay: ELISA binding to surface-bound BSA-VprN conjugate; set-up: species or system HIV-1; details: FIG. 2
Protocol: Panning of the human scFv antibody phage display library [Harrison, J. L. et al. (1996) Methods in Enzymology 267, 83-109; Nissim, A. et al. (1994) EMBO J 13, 692-698] was conducted as follows. Two immunotubes (5 ml, NUNC) were incubated in parallel, with rotation at room temperature overnight, one containing the BSA-VprN conjugate and the other one containing only BSA, both in 0.1 mg/ml carbonate buffer (0.05M Na2CO3/0.05M NaHCO3, pH9.6). Following incubation, the tube with the surface attached BSA-VprN conjugates was washed three times with 1× PBS and then incubated for two hours at 37° C. with 2% (w/v) skim milk (DIFCO) in 1×PBS (2% MPBS). After three washes with 1× PBS, the scFv phage library (4 ml in 1% MPBS) was added and the tube containing the phage particles was incubated for 30 min with, and for 1.5 hours without rotation, at room temperature. The supernatant was then removed and the tube was washed ten times first with 1×PBS containing 0.05% Tween 20 and then with 1×PBS only. For elution of bound phages, 1 ml of 0.1M triethylamine was added, incubated for 10 min at room temperature with rotation, and the triethylamine solution containing the eluted phages collected and mixed with 0.5 ml of 1M Tris-HCl, pH7.4. […]

[6] = system: Tat-ARM mediated nuclear import; assay: Nuclear import of FL-BSA-Tat conjugates in HeLa cells; format: cell-based; details: WGA 1 mg/ml, peptide/FL-BSA-Tat 20/1
[7] = molecular target: T1, BSA-SV40 NLS conjugate (SV40, rhodamine- or biotin-labelled in the nuclear import assays; cysteine added at the C-terminus; peptide chemically conjugated to BSA); assay: peptide ELISA on coated BSA-NLS conjugates (FIG. 2A)
T1 construct: also called BSA-SV40 large T-antigen NLS; SV40 NLS-BSA conjugate
Protocol: (§3) The various ELISA assays used in the present work were carried out as follows: MaxiSorb plates (NUNC) were covered overnight with 25-100 μg/ml of the antigen (in Carbonate Buffer 0.05M Na₂CO₃/0.05M NaHCOs, pH9.6) at 4° C. On the next day, the plates were washed three times with 1×PBS and blocked with 2% BSA in 1×PBS (for antibodies) or 2% Skim Milk (DIFCO) in 1×PBS (for all other molecules) for 2 hours at 37° C. The plates were then washed three times with 1×PBS, and the appropriate ligand (in blocking solution) was added and incubated for 2 hours at 37° C. The plates were then washed three times with 1×PBS and the following detecting agents were added for detecting the antigen-ligand complexes: Avidin-POD (Roche Diagnostics), for biotin labeled molecules (1 unit/ml); anti-M13 monoclonal antibody (Amersham Pharmacia, 1:5000), for the bound phages; and a mix of mouse anti-myc antibody (Sigma, 1:1000) with anti-mouse-HRP antibody (Sigma, 1:2000) for the scFv antibodies. Each detecting agent was dissolved in the appropriate blocking solution (see above). Following incubation for 1 hour at 37° C. with the detecting agent, the plates were washed three times with 1×PBS and the appropriate substrate was added, according to manufacturer instructions.

[8] = molecular target: T2, BSA-VprN conjugate (HIV-1, rhodamine- or biotin-labelled in the nuclear import assays; cysteine added at the N-terminus; peptide chemically conjugated to BSA); assay: peptide ELISA on coated BSA-NLS conjugates (FIGS. 2A and 2B)
T2 construct: The peptide is printed with superscripts 16 and 34, the text calls it residues 17-34; also called VprN-BSA conjugate; VprN-BSA
Protocol: as §3

[9] = molecular target: anti-VprN scFv antibody Ab1; assay: competition ELISA: free VprN peptide against Ab1 binding to coated BSA-VprN

Nc1nc2c(ncn2[C@@H]2O[C@H](COP(=O)(O)OP(=O)(O)OP(O)(O)=S)[C@@H](O)[C@H]2O)c(=O)[nH]1 [GTP-γ-S]
inhibition of nuclear import of BSA-VprN conjugate by control agents [1]: partially inhibited
inhibition of nuclear import of Vpr-GST by control agents [2]: partially inhibited

SV40 NLS peptide: PKKKRKVC (SEQ. ID. NO.7), the SV40 large T-antigen NLS (SV40-NLS with extra C)
inhibition of binding of the three antibodies to VprN-BSA by soluble ligand [3]: No or low inhibition

VprN mutant (CNEATLELLPELKNPAVRHF)
inhibition of binding of the three antibodies to VprN-BSA by soluble ligand [3]: No or low inhibition
inhibition of binding of all three antibodies to Vpr-GST by added ligand [4]: no or little inhibition

VprN-BSA: BSA molecule bearing about 3-4 covalently attached VprN peptides
inhibition of binding of the three antibodies to VprN-BSA by soluble ligand [3]: inhibited
concentration of soluble ligand inhibiting Ab1 binding to its antigen by 90% ([3]; Ab1, surface-bound VprN-BSA): about 5 μM
fold lower concentration than VprN peptide required to block antibody binding to Vpr-GST [4]: about ten
inhibition of binding of all three antibodies to Vpr-GST by added ligand [4]: strongly inhibited

peptide a: synthetic peptide of the CDR3 random insert of phage A, ISSD (SEQ. ID. NO. 4) (AFMKSGKRFIH; CDR3 random insert sequence of Ab2)
binding of anti-VprN peptide to VprN-BSA conjugate [5]: failed to recognize

wheat germ agglutinin [WGA]
inhibition of nuclear import of BSA-VprN conjugate by control agents [1]: inhibited
inhibition of nuclear import of Vpr-GST by control agents [2]: inhibited
inhibition of nuclear import of FL-BSA Tat ARM conjugates by control agents [6]: inhibited

B1: synthetic anti-VprN peptide a (CDR3 random insert of phage A) (peptide)
peptide: ISSD
modifications: not fully specified
binding result [7]: no binding
binding result [8]: no binding

B2: VprN peptide (free synthetic peptide) (peptide)
peptide: CNEWTLELLEELKNEAVRHF
modifications: cysteine added at the N-terminus
concentration giving 90% inhibition [9]: > 15 µM

B3: synthetic anti-VprN peptide c (CDR3 random insert of phage C) (peptide)
peptide: HFHYKGKLQTF
modifications: not fully specified
binding result [7]: no binding
binding result [8]: no binding
